A short description of data set [1]: Displacement of [3H]BTX-B from neuronal Na+ channel in male Sprague-Dawley rat brain synaptosomal membrane vesicles by liquid scintillation spectrometry. It is filed as tissue-based. On the technique in general: In a radioligand displacement assay an active substance lowers the binding of a labelled ligand.
For data set [2], the target named is Sigma non-opioid intracellular receptor 1 (Homo sapiens, UniProt Q99720). Description: Displacement of [3H]-(+)-pentazocine from sigma-1 receptor in human Jurkat cell membrane by liquid scintillation spectrometry. It is filed as cell membranes.
Data set [3] concerns HeLa. Description: Cytotoxicity against human HeLa cells after 24 hrs by MTT colorimetric assay. It is filed as functional, cell-based.
The test system of data set [4] is HUVEC. Description: Cytotoxicity against HUVEC cells after 48 hrs by SRB staining assay. Format: cell-based. To be noted: human. For orientation: Sulforhodamine B stains cellular protein and so reports cell mass.
Data set [5] deals with NCI-H1975. Description: Cytotoxicity against human NCI-H1975 cells after 24 hrs by MTT colorimetric assay. Format: functional, cell-based. To be noted: NCI-H1975, 24 h. In general terms: Tetrazolium dyes change colour on reduction, which living cells bring about.
Data set [6] in a line: Cytotoxicity against human MIAPaCa2 cells after 24 hrs by MTT colorimetric assay. To be noted: MIA PaCa-2, 24 h. It is filed as functional, cell-based.
Data set [7] is described as follows: Displacement of [3H]-DTG from sigma-2 receptor in rat cerebral cortex membranes in presence of (+)-pentazocine by liquid scintillation spectrometry. It is filed as cell membranes, Membrane.
Data set [8] concerns MDA-MB-231. Description: Cytotoxicity against human MDA-MB-231 cells after 24 hrs by MTT colorimetric assay. Format: functional, cell-based. To be noted: MDA-MB-231, 24 h.
The subject of data set [9] is Jurkat. Description: Selectivity ratio of IC50 for sigma-2 receptor in rat cerebral cortex membranes to IC50 for sigma-1 receptor in human Jurkat cell membrane. Format: cell-based.
The subject of data set [10] is NHDF. Description: Cytotoxicity against NHDF cells after 48 hrs by SRB staining assay. Format: cell-based. To be noted: human.

Molecules are shown by their SMILES.

One may read the IC50 as the point on the concentration scale where inhibition reaches its midpoint. The term LC50 denotes the concentration lethal to half of the exposed cells or organisms. Low values mean greater toxicity, high ones lower toxicity.

Sequence of Sigma non-opioid intracellular receptor 1 (Q99720 whole entry): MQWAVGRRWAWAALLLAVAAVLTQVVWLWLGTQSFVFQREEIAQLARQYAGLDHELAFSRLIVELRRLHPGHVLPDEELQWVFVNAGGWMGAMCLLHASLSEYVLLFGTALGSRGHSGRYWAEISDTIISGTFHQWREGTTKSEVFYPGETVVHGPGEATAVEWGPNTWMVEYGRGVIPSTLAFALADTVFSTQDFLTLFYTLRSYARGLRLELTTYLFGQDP

With `O=C(CN1CCCCC1)N1CCN(C2(c3ccccc3)C3CC4CC(C3)CC2C4)CC1` (centres undefined), the IC50 in data set [1] was 2.44 µM; in data set [2] it was 0.135 µM; in data set [3] it was 12.4 µM; in [5], 16.3 µM; in data set [6], 12.2 µM; in [7], 3.34 µM. Moreover, in [8], half-maximal inhibition (IC50) was put at 11.4 µM. For the same compound, the LC50 was 60.35 µM in data set [4] and 58.43 µM in data set [10]. Further, the Ratio IC50 in data set [9] worked out at 24.7.
Consider `O=C(CN1CCCCC1)N1CCN(C2(c3ccc(F)cc3)C3CC4CC(C3)CC2C4)CC1` (centres undefined), for which the IC50 in data set [3] is 8.4 µM; in data set [5], 12.7 µM; in data set [6], 14.6 µM; in data set [8] it was 6.8 µM. The LC50 in [4] stood at 88.78 µM; in data set [10] it was 85.26 µM.
Consider `CN1CCN(C2(c3ccc(F)cc3)C3CC4CC(C3)CC2C4)CC1` (centres undefined), for which the IC50 in [3] turned out to be 15.3 µM; in data set [5], 14.6 µM; in data set [6], 16.6 µM; in data set [8], 15.7 µM.
With `O=C(N1CCN(C2(c3ccccc3)C3CC4CC(C3)CC2C4)CC1)n1ccnc1` (centres undefined), the 50% inhibitory concentration (IC50) worked out at 12.2 µM in [3], 10.5 µM in data set [5], 13.5 µM in [6] and 13.5 µM in data set [8]. The LC50 in [4] was over 100 µM; in data set [10], 98.16 µM.
On to `Nc1ccn([C@@H]2O[C@H](CO)[C@@H](O)C2(F)F)c(=O)n1` [GEMCITABINE], for which the IC50 in data set [3] was found to be 3.3 µM; in data set [6] it was 0.6 µM; in data set [8], 0.19 µM.
For `Fc1ccc(C2(N3CCNCC3)C3CC4CC(C3)CC2C4)cc1.O=C(O)/C=C\C(=O)O` (centres undefined), the IC50 in [3] was 12.9 µM; in data set [5], 12.8 µM; in data set [6], 11.7 µM; in data set [8], 14.6 µM. In addition, the values for the LC50 in data set [4] and in data set [10] were over 100 µM and 93.66 µM, respectively.
As for `CN1CCN(C2(c3ccccc3)C3CC4CC(C3)CC2C4)CC1` (centres undefined), the IC50 in data set [3] was 17.4 µM; in data set [5], 18.7 µM; in data set [6], 19.5 µM; in [8], 17.4 µM.
With `O=C(O)/C=C\C(=O)O.c1ccc(C2(N3CCNCC3)C3CC4CC(C3)CC2C4)cc1` (centres undefined), the IC50 stood at 9.2 µM in data set [3], 17.3 µM in [5], 12.3 µM in data set [6] and 8.4 µM in data set [8]. Also, the LC50 in [4] came out at 95.45 µM; in [10], 90 µM.
Turning to `O=C(c1ccc(Cl)s1)N1CCN(C2(c3ccccc3)C3CC4CC(C3)CC2C4)CC1` (centres undefined), the IC50 in data set [3] was found to be 12.8 µM; in data set [5], 12.7 µM; in data set [6], 12.4 µM; in data set [8] it was 11.4 µM.
Turning to `CCOC(=O)N1CCN(C2(c3ccccc3)C3CC4CC(C3)CC2C4)CC1` (centres undefined), the IC50 in data set [3] amounted to 23 µM; in data set [5], 24.2 µM; in data set [6] it was 25.4 µM; in data set [8], 28 µM. The LC50 was over 100 µM in [4] and 100 µM in data set [10].
With `CCOC(=O)N1CCN(C2(c3ccc(F)cc3)C3CC4CC(C3)CC2C4)CC1` (centres undefined), the IC50 in data set [3] was 14.5 µM; in [5] it was 17.5 µM; in data set [6], 18.5 µM; in data set [8], 21 µM.

The record behind these values is ChEMBL document CHEMBL3414554, “Novel 1-(2-aryl-2-adamantyl)piperazine derivatives with antiproliferative activity” (Eur J Med Chem, 2015).
